Results as given in ChEMBL document CHEMBL5325470, “Design, synthesis and mechanism studies of dual EZH2/BRD4 inhibitors for cancer therapy” (Bioorg Med Chem, 2023).
Active and inactive are the calls of the source. The calls are words filed in the database; no cut-off is given here.

Key:
[1] = Binding affinity to recombinant PRC2 complex (unknown origin) incubated for 3 hrs in presence of SAM; set-up: species or system Homo sapiens
A549 [2] = assay: Antiproliferative activity against human A549 cells incubated for 72 hrs by MTT assay; format: functional, cell-based; conditions: A549, 72 h
BT-549 [3] = assay: Antiproliferative activity against human BT-549 cells incubated for 72 hrs by MTT assay; format: functional, cell-based; conditions: BT-549, 72 h
HCT-116 [4] = assay: Antiproliferative activity against human HCT-116 cells incubated for 72 hrs by MTT assay; format: functional, cell-based; conditions: HCT-116, 72 h
MDA-MB-231 [5] = assay: Antiproliferative activity against human MDA-MB-231 cells incubated for 72 hrs by MTT assay; format: functional, cell-based; conditions: MDA-MB-231, 72 h
[6] = biological target: Bromodomain-containing protein 4 (Homo sapiens, UniProt O60885); assay: Inhibition of BRD4 BD1 (unknown origin) incubated for 15 mins by TR-FRET method
MDA-MB-231 [7] = assay: Synergistic antiproliferative activity against human MDA-MB-231 cells at JQ1 and compound 1:1 ratio incubated for 72 hrs by MTT assay; format: functional, cell-based; conditions: MDA-MB-231, 72 h
HCT-116 [8] = assay: Synergistic antiproliferative activity against human HCT-116 cells at JQ1 and compound 1:1 ratio incubated for 72 hrs by MTT assay; format: functional, cell-based; conditions: HCT-116, 72 h
BT-549 [9] = assay: Synergistic antiproliferative activity against human BT-549 cells at JQ1 and compound 1:1 ratio incubated for 72 hrs by MTT assay; format: functional, cell-based; conditions: BT-549, 72 h
A549 [10] = assay: Synergistic antiproliferative activity against human A549 cells at JQ1 and compound 1:1 ratio incubated for 72 hrs by MTT assay; format: functional, cell-based; conditions: A549, 72 h
[11] = biological target: T1, Histone-lysine N-methyltransferase EZH2 (Homo sapiens, UniProt Q15910); assay: Inhibition of EZH2 in human MDA-MB-231 cells assessed as decrease in H3K27ac level at 2 to 8 uM incubated for 48 hrs by Western blotting analysis; format: cell-based; conditions: dose 2-8 µM
[12] = biological target: T1, Histone-lysine N-methyltransferase EZH2; assay: Inhibition of EZH2 in human A549 cells assessed as decrease in H3K27ac level at 2 to 8 uM incubated for 48 hrs by Western blotting analysis; format: cell-based; conditions: dose 2-8 µM
[13] = biological target: T1, Histone-lysine N-methyltransferase EZH2; assay: Inhibition of EZH2 in human HCT-116 cells assessed as decrease in H3K27ac level at 2 to 8 uM incubated for 48 hrs by Western blotting analysis; format: cell-based; conditions: dose 2-8 µM

T1 sequence (Q15910 whole entry, looked up): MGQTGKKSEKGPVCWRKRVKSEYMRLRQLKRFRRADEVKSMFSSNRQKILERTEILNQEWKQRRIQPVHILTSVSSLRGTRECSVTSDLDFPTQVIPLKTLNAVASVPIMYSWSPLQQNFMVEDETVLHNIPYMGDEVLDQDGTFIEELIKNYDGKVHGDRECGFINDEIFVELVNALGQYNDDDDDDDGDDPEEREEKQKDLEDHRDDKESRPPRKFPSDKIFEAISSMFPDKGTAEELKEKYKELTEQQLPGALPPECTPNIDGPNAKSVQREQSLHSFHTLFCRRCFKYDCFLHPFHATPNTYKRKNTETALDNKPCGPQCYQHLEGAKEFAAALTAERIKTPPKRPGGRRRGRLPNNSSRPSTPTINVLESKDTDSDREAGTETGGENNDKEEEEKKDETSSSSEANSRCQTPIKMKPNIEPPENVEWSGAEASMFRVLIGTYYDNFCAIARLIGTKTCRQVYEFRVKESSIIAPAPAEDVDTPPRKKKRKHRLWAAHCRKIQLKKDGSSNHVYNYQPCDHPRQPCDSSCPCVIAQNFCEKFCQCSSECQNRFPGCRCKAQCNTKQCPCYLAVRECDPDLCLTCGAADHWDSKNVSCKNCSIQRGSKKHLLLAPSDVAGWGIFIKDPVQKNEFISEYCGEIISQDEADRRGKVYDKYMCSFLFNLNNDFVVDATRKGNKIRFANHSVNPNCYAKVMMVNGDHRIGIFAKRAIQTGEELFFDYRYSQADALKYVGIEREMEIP

SMILES	Kd [1] [µM]	IC50 (A549 [2]) [µM]	IC50 (BT-549 [3]) [µM]	IC50 (HCT-116 [4]) [µM]	IC50 (MDA-MB-231 [5]) [µM]	IC50 [6] [µM]	IC50 (MDA-MB-231 [7]) [µM]	IC50 (HCT-116 [8]) [µM]	IC50 (BT-549 [9]) [µM]	IC50 (A549 [10]) [µM]	inhibition [11]	inhibition [12]	inhibition [13]
Cc1cc(C)c(CNC(=O)c2cc(-c3ccc(NC(=O)CCNC(=O)C[C@@H]4N=C(c5ccc(Cl)cc5)c5c(sc(C)c5C)-n5c(C)nnc54)cc3)cc3c2cnn3C(C)C)c(=O)[nH]1	0.464	> 20	> 20	> 20	6.16	0.124							
Cc1cc(C)c(CNC(=O)c2cc(N3CCC(CNC(=O)C[C@@H]4N=C(c5ccc(Cl)cc5)c5c(sc(C)c5C)-n5c(C)nnc54)CC3)cc3c2cnn3C(C)C)c(=O)[nH]1	0.133	8.93	3.2	5.61	2.07	0.353							
Cc1cc(C)c(CNC(=O)c2cc(NC3CCN(C(=O)C[C@@H]4N=C(c5ccc(Cl)cc5)c5c(sc(C)c5C)-n5c(C)nnc54)CC3)cc3c2cnn3C(C)C)c(=O)[nH]1		> 20	3.91	4.28	8.09								
CCC(C)n1ncc2c(C(=O)NCc3c(C)cc(C)[nH]c3=O)cc(-c3ccc(N4CCN(C(=O)C[C@@H]5N=C(c6ccc(Cl)cc6)c6c(sc(C)c6C)-n6c(C)nnc65)CC4)nc3)cc21 (some centres undefined)		> 20	> 20	> 20	> 20								
Cc1cc(C)c(CNC(=O)c2cc(-c3ccc(N4CCN(C(=O)C[C@@H]5N=C(c6ccc(Cl)cc6)c6c(sc(C)c6C)-n6c(C)nnc65)CC4)cc3)cc3c2cnn3C(C)C)c(=O)[nH]1		> 20	> 20	17.8	> 20								
Cc1cc(C)c(CNC(=O)c2cc(N3CCC4(CCN(C(=O)C[C@@H]5N=C(c6ccc(Cl)cc6)c6c(sc(C)c6C)-n6c(C)nnc65)C4)CC3)cc3c2cnn3C(C)C)c(=O)[nH]1		17.3	3.64	2.23	2.87								
Cc1cc(C)c(CNC(=O)c2cc(NCCCCCCNC(=O)C[C@@H]3N=C(c4ccc(Cl)cc4)c4c(sc(C)c4C)-n4c(C)nnc43)cc3c2cnn3C(C)C)c(=O)[nH]1	0.19	9.2	4.99	1.9	3.23	0.138							
Cc1cc(C)c(CNC(=O)c2cc(NCCCCNC(=O)C[C@@H]3N=C(c4ccc(Cl)cc4)c4c(sc(C)c4C)-n4c(C)nnc43)cc3c2cnn3C(C)C)c(=O)[nH]1		> 20	9.57	10.2	13.5	0.216							
CCn1ncc2c(C(=O)NCc3c(C)cc(C)[nH]c3=O)cc(-c3ccc(N4CCN(C(=O)C[C@@H]5N=C(c6ccc(Cl)cc6)c6c(sc(C)c6C)-n6c(C)nnc65)CC4)nc3)cc21		> 20	3.51	6.68	> 20								
Cc1cc(C)c(CNC(=O)c2cc(-c3ccc(N4CCN(C(=O)C[C@@H]5N=C(c6ccc(Cl)cc6)c6c(sc(C)c6C)-n6c(C)nnc65)CC4)nc3)cc3c2cnn3C)c(=O)[nH]1		> 20	5.13	> 20	11.8								
Cc1sc2c(c1C)C(c1ccc(Cl)cc1)=N[C@@H](CC(=O)OC(C)(C)C)c1nnc(C)n1-2		18.3	3.89	3.07	6.17								
Cc1cc(C)c(CNC(=O)c2cc(-c3ccc(NC(=O)CCCCNC(=O)C[C@@H]4N=C(c5ccc(Cl)cc5)c5c(sc(C)c5C)-n5c(C)nnc54)cc3)cc3c2cnn3C(C)C)c(=O)[nH]1	0.682	> 20	10.4	6.27	2.21	0.055							
CCCc1cc(C)[nH]c(=O)c1CNC(=O)c1cc(-c2ccc(N3CCN(C(=O)C[C@@H]4N=C(c5ccc(Cl)cc5)c5c(sc(C)c5C)-n5c(C)nnc54)CC3)nc2)cc2c1cnn2C(C)C		> 20	> 20	> 20	> 20								
Cc1cc(C)c(CNC(=O)c2cc(-c3ccc(NC(=O)CCCNC(=O)C[C@@H]4N=C(c5ccc(Cl)cc5)c5c(sc(C)c5C)-n5c(C)nnc54)cc3)cc3c2cnn3C(C)C)c(=O)[nH]1	0.376	> 20	> 20	> 20	7.54	0.137							
Cc1cc(C)c(CNC(=O)c2cc(-c3ccc(N4CCN(C(C)C)CC4)nc3)cc3c2cnn3C(C)C)c(=O)[nH]1		16.1	15.1	16.9	11.7		1.1	0.92	4.73	7.48			
Cc1cc(C)c(CNC(=O)c2cc(NCC3CCN(C(=O)C[C@@H]4N=C(c5ccc(Cl)cc5)c5c(sc(C)c5C)-n5c(C)nnc54)CC3)cc3c2cnn3C(C)C)c(=O)[nH]1		4.58	2.12	2.18	3.11								
Cc1cc(C)c(CNC(=O)c2cc(-c3ccc(CNC(=O)C[C@@H]4N=C(c5ccc(Cl)cc5)c5c(sc(C)c5C)-n5c(C)nnc54)cc3)cc3c2cnn3C(C)C)c(=O)[nH]1		> 20	12.2	11.5	3.14	0.259							
Cc1cc(C)c(CNC(=O)c2cc(N3CCN(C(=O)C[C@@H]4N=C(c5ccc(Cl)cc5)c5c(sc(C)c5C)-n5c(C)nnc54)CC3)cc3c2cnn3C(C)C)c(=O)[nH]1		> 20	3.87	> 20	10.9								
Cc1cc(C)c(CNC(=O)c2cc(NCCCNC(=O)C[C@@H]3N=C(c4ccc(Cl)cc4)c4c(sc(C)c4C)-n4c(C)nnc43)cc3c2cnn3C(C)C)c(=O)[nH]1		> 20	11.5	> 20	15.4	0.206							
Cc1cc(C)c(CNC(=O)c2cc(-c3ccc(NC(=O)CNC(=O)C[C@@H]4N=C(c5ccc(Cl)cc5)c5c(sc(C)c5C)-n5c(C)nnc54)cc3)cc3c2cnn3C(C)C)c(=O)[nH]1		> 20	10.8	2.9	1.24	0.138							
Cc1cc(C)c(CNC(=O)c2cc(-c3ccc(NC(=O)C[C@@H]4N=C(c5ccc(Cl)cc5)c5c(sc(C)c5C)-n5c(C)nnc54)cc3)cc3c2cnn3C(C)C)c(=O)[nH]1		> 20	> 20	> 20	> 20	> 20							
CC[C@@H](C)n1cc(C)c2c(C(=O)NCc3c(C)cc(C)[nH]c3=O)cc(-c3ccc(N4CCNCC4)nc3)cc21	0.0891	18.6	9.23	12.9	11.7		2.6	1.76	2.05	4.34	inactive	inactive	inactive
Cc1cc(C)c(CNC(=O)c2cc(-c3ccc(N4CCN(C(=O)C[C@@H]5N=C(c6ccc(Cl)cc6)c6c(sc(C)c6C)-n6c(C)nnc65)CC4)nc3)cc3c2cnn3C(C)C)c(=O)[nH]1		> 20	3.4	2.3	> 20								
